{"source": "patent US11649228B2", "about": "“Zinc indicators for cellular imaging” (The Board of Regents of the University of Texas System, priority 2018, dated 2023)", "key": {"[1]": {"details": "Table 2, previously reported sensors, cited from earlier work; for Kd: read-out: Kd(Zn^2+)"}, "[2]": {"experiment": "Photochemical characterization of ZIGIRs in vitro (absorption, emission, quantum yield)", "format": "physicochemical", "details": "for fluorescence quantum yield: Zn^2+-bound state; for ε (extinction coefficient): in M-1·cm-1 (unit assumed); for ϕfl × ε (fluorescence brightness): in M^-1 cm^-1 (unit assumed)", "method": "(§1) UV-Vis spectra were recorded in a 1-cm path quartz cell on a Shimadzu 2401 PC spectrometer. Fluorescence excitation and emission spectra were recorded on a Fluorolog 3 spectrometer (Jobin-Yvon Horiba, Edison, N.J.). Zinc titration was performed by adding ZIGIRs (0.5 μM final concentration) to buffered Zn^2+ solutions containing 100 mM HEPES (pH 7.4). Nitrilotriacetic acid (NTA, 10 mM) and varying concentrations of ZnSO4 (0-9 mM) were mixed to reach free Zn^2+ concentrations between 0.1 nM and 40 nM (Li et al., 2011). Zn^2+ concentrations above 40 nM were controlled by iminodiacetate (IDA, 10 mM) and varying amounts of ZnSO4 (0-9.7 mM) in 100 mM HEPES (pH 7.4; Sasaki et al., 2011). To determine Zn^2+ binding dissociation constants (Kd(Zn^2+)), the Zn^2+ titration data were fitted to the least square exponential equation (Prism 7). Fluorescence quantum yields of ZIGIRs at pH 7.5 were determined using rhodamine 6G as the reference (Φfl=0.94 in MeOH; Magde et al., 2002). An example in shown FIGS. 11A0B. To examine the pH sensitivity of ZIGIRs, the fluorescence emission spectra was recorded from pH 3-9.4 in either nominally Zn^2+-free solutions containing 5 mM iminodiacetate or in 25 μM ZnSO4 solutions. The pH was controlled with 10 mM pH buffers including chloroacetic acid (pH 3.1), acetate (pH 4.1 and 5.0), 2-morpholinoethanesulfonic acid (MES, pH 6.14), HEPES (pH 7.5) and N-cyclohexyl-2-aminoethanesulfonic acid (CHES, pH 9.4)."}, "[3]": {"experiment": "Zn^2+ titration of ZIGIRs by fluorescence emission (Hill plot)", "format": "binding", "method": "as §1"}, "[4]": {"experiment": "pH sensitivity of ZIGIR fluorescence", "format": "physicochemical", "details": "same Zn^2+ level", "method": "as §1, with “The pH was controlled with 10 mM pH buffers including chloroacetic acid (pH 3.1), acetate (pH 4.1 and 5.0), 2-morpholinoethanesulfonic acid (MES, pH 6.14), HEPES (pH 7.5) and N-cyclohexyl-2-aminoethanesulfonic acid (CHES, pH 9.4).” left out"}, "[5]": {"experiment": "Metal ion selectivity of fluorescence response", "format": "physicochemical", "details": "1 μM sensor, 10 μM TPEN; against Na^+, K^+, Ca^2+, Mg^2+, Fe^2+, Ni^2+, Co^2+, Cu^2+, Mn^2+", "method": "To study the metal selectivity, the fluorescence of ZIGIR-1 (1 μM) or ZIGIR-2 (1 μM) was measured in the presence of 10 μM TPEN and an excess of metal ion including 1 mM KCl, 1 mM NaCl, 1 mM CaSO4, 1 mM MgSO4, 15 μM MnSO4, 15 μM FeSO4, 15 μM NiSO4, 15 μM CoCl2, 15 μM CuSO4, 15 μM CdSO4 or 15 μM ZnSO4. The emission intensity was normalized to that of 15 μM ZnSO4 (100%)."}}, "note": "Where two headings read alike, the source gives them in different places.", "data": [{"smiles": "COc1ccc(N(CC(=O)O)CC(=O)O)c(OCCOc2cc(-c3c4cc(F)c(=O)cc-4oc4cc(O)c(F)cc34)ccc2NCC(=O)O)c1", "note": "[FluoZin-3]", "values": [{"measurement": "Zn^2+ response (fold change)", "setting": "[1]", "value": ">100", "unit": "×"}, {"measurement": "Kd", "setting": "[1]", "value": 15, "unit": "nM"}]}, {"smiles": "COc1cc(O)c(-c2nc3c(CNCc4ccccn4)cccc3o2)cc1OC", "note": "[ZINbo-5]", "values": [{"measurement": "Kd", "setting": "[1]", "value": 2.2, "unit": "nM"}]}, {"smiles": "Cc1cc2c(c(CN(Cc3ccccn3)Cc3cnccn3)c1)OC1(CC2)C(C)c2ccccc2N1C", "note": "(centres unmarked) [SpiroZin2]", "values": [{"measurement": "Zn^2+ response (fold change)", "setting": "[1]", "value": 8, "unit": "×"}, {"measurement": "Kd", "setting": "[1]", "value": 3.6, "unit": "nM"}]}, {"smiles": "CCN(CC)c1ccc2c(-c3ccc(NCCN(CCc4ccccn4)Cc4ccccn4)cc3C(=O)[O-])c3ccc(=[N+](CC)CC)cc-3oc2c1", "note": "[ZIGIR-3]", "values": [{"measurement": "absorption maximum", "setting": "[2]", "value": "around 555 nm"}, {"measurement": "emission maximum", "setting": "[2]", "value": "~580", "unit": "nm"}, {"measurement": "fluorescence quantum yield", "setting": "[2]", "value": 18, "unit": "%"}]}, {"smiles": "CN=c1ccc2c(-c3ccc(NCCN(CCc4ccccn4)Cc4ccccn4)cc3C(=O)O)c3ccc(NC)cc3oc-2c1", "note": "[ZIGIR-1]", "values": [{"measurement": "FC (fold change in fluorescence brightness ϕfl×ε from Zn^2+-free to Zn^2+-bound state)", "setting": "[3]", "value": 50}, {"measurement": "fluorescence enhancement upon Zn^2+ binding", "setting": "[3]", "value": 50, "unit": "fold"}, {"measurement": "Kd", "setting": "[3]; 100 mM HEPES pH 7.4", "value": 290, "unit": "nM"}, {"measurement": "absorption maximum", "setting": "[2]", "value": "~520", "unit": "nm"}, {"measurement": "bathochromic shift in absorption maximum from Zn^2+-free to Zn^2+-bound state", "setting": "[2]", "value": 4, "unit": "nm"}, {"measurement": "λabd^max", "setting": "[2]; Zn^2+ bound", "value": 521, "unit": "nm"}, {"measurement": "λem^max", "setting": "[2]; Zn^2+ bound", "value": 543, "unit": "nm"}, {"measurement": "ϕfl (fluorescence quantum yield)", "setting": "[2]; Zn^2+ bound", "value": 0.30}, {"measurement": "ε (extinction coefficient)", "setting": "[2]; Zn^2+ bound", "value": "112,000"}, {"measurement": "ϕfl × ε (fluorescence brightness)", "setting": "[2]; Zn^2+ bound", "value": "33,600"}, {"measurement": "λabd^max", "setting": "[2]; Zn^2+ free", "value": 517, "unit": "nm"}, {"measurement": "λem^max", "setting": "[2]; Zn^2+ free", "value": 547, "unit": "nm"}, {"measurement": "ϕfl (fluorescence quantum yield)", "setting": "[2]; Zn^2+ free", "value": 0.008}, {"measurement": "ε (extinction coefficient)", "setting": "[2]; Zn^2+ free", "value": "85,200"}, {"measurement": "ϕfl × ε (fluorescence brightness)", "setting": "[2]; Zn^2+ free", "value": 682}, {"measurement": "fluorescence quantum yield", "setting": "[2]", "value": 30, "unit": "%"}, {"measurement": "fluorescence signal at pH 7.5 versus pH 5.0", "setting": "[4]", "value": "essentially the same fluorescence signal"}, {"measurement": "selectivity of fluorescence response for Zn^2+", "setting": "[5]", "value": "selective for Zn^2+"}]}]}
